Read-outs that look alike come from different tables or passages of the source.
Columns and labels:
Assay type in all cases: cell-based
[1] = test system: EcR1: Penicillinase-Producing Escherichia coli without Associated Resistance; assay: Antibiogram by the disk diffusion technique; settings: for MIC mg/L (diameter in mm): EcR1, cells that print a diameter, Table A2; for CA-SFM Interpretation: EcR1, diameter against CA-SFM 2011 limits; for CLSI Interpretation: EcR1, diameter against CLSI 2011 limits; for EUCAST Interpretation: EcR1, diameter against EUCAST 2011 limits; for Diameter: EcR1, disk diffusion; for Diameter / Results: Table A1; for Results: EcR1, interpretation of the diameter against Dmin Dmax
Description: (§1) 5.1 EcR1: Penicillinase-Producing Escherichia coli without Associated Resistance The bacterial and antibiogramidentification is carried out by the VITEK 2 system (bioMérieux) and by the disk diffusion technique.

[2] = test system: EcR3: ESBL-Producing Escherichia coli; assay: Antibiogram by the disk diffusion technique; settings: for CA-SFM Interpretation: Cd CA-SFM 2011
Description: The bacterial and antibiogramidentification is carried out by the VITEK 2 system (bioMerieux) and by the disk diffusion technique

[3] = test system: PaR3: Pseudomonas aeruginosa; assay: Antibiogram, MIC by the VITEK 2 system
Description: (§2) The bacterial and antibiogramidentification is carried out by the VITEK 2 system (bioMérieux)

[4] = test system: PaR5: Pseudomonas aeruginosa; assay: Antibiogram by the disk diffusion technique; settings: for Diameter / Results: Table I1; for Results: against Dmin-Dmax
Description: (§3) The bacterial and antibiogramidentification is carried out by the VITEK 2 system (bioMérieux) and by the disk diffusion technique

[5] = test system: EcR1: Penicillinase-Producing Escherichia coli without Associated Resistance; assay: Antibiogram, MIC by the VITEK 2 system; settings: for CA-SFM Interpretation: EcR1, MIC against Cc CA-SFM 2011; for CLSI Interpretation: EcR1, MIC against Cc CLSI 2011; for Results: EcR1, interpretation of the MIC, Table A1; for MIC: Escherichia coli
Description: as §1

[6] = test system: EcR2: Cephalosporinase-Hyperproducing Strain of Escherichia coli; assay: Antibiogram, MIC by the VITEK 1 system; settings: for Results: EcR2, Table B1; for CA-SFM Interpretation: Cc CA-SFM 2011; for MIC: Escherichia coli
Description: The bacterial and antibiogramidentification is carried out by the VITEK 1 system (bioMérieux) and by the disk diffusion technique

[7] = test system: SaR1: Meticillin-Resistant Staphylococcus aureus without Associated Resistance; assay: Antibiogram, MIC by the VITEK 2 system; settings: SaR1; for MIC: Staphylococcus aureus, read-out: MIC; for CA-SFM Interpretation: Cc CA-SFM 2011; for CLSI Interpretation: Cc CLSI 2011; for EUCAST Interpretation: Cc EUCAST 2011; for Results: from MIC
Description: as §2

[8] = test system: SaR4: Meticillin-Resistant Staphylococcus aureus; assay: Antibiogram, MIC by the VITEK 2 system; settings: SaR4; for MIC: Staphylococcus aureus, read-out: MIC
Description: as §3

[9] = EcR1, Table A2, read-out: MIC mg/L (diameter in mm)
[10] = EcR1, VITEK 2, Table A1, read-out: MIC
[11] = EcR2, VITEK 1, Table B1, read-out: MIC
[12] = EcR2, Table B2, MIC, read-out: MIC

With `C[C@H]1[C@H](NC(=O)/C(=N\OC(C)(C)C(=O)O)c2csc(N)n2)C(=O)N1S(=O)(=O)O` [Aztreonam] the “MIC mg/L (diameter in mm)” value [1] was 28 mm, the “CA-SFM Interpretation” value [1] was “Susceptible” and the “CLSI Interpretation” value [1] was “Susceptible”. For the same molecule, the “EUCAST Interpretation” value [1] was “Susceptible”, the Diameter [1] was 28 mm and the Results [1] was “Susceptible”.
In the case of `CO/N=C(\C(=O)N[C@@H]1C(=O)N2C(C(=O)[O-])=C(C[N+]3(C)CCCC3)CS[C@H]12)c1csc(N)n1` [Cefepime], the “MIC mg/L (diameter in mm)” value [1] is reported as 27 mm, the “CA-SFM Interpretation” value [1] is reported as “Susceptible” and the “CLSI Interpretation” value [1] is reported as “Susceptible”. The “EUCAST Interpretation” value [1] was “Susceptible”, the Diameter [1] was 27 mm and the Results [1] was “Susceptible”.
In the case of `O=C(O)c1cn(C2CC2)c2cc(N3CCNCC3)c(F)cc2c1=O` [Ciprofloxacin], the Results [1] is reported as “Susceptible”, the “CA-SFM Interpretation” value [2] is reported as “Susceptible” and the Results ([2]; Table C1, against Dmin Dmax) is reported as “Susceptible”.
In the case of `C[C@@H](O)[C@H]1C(=O)N2C(C(=O)O)=C(S[C@@H]3CN[C@H](C(=O)N(C)C)C3)[C@H](C)[C@H]12` [Meropenem], the “CA-SFM Interpretation” value ([3]; Cc CA-SFM 2011) is reported as “Resistant”, the “CLSI Interpretation” value ([3]; Cc CLSI 2011) is reported as “Resistant” and the “EUCAST Interpretation” value ([3]; Cc EUCAST 2011) is reported as “Resistant”. The MIC ([3]; Pseudomonas aeruginosa, Table H2, read-out: MIC) was no less than 16 µg/mL, the MIC ([3]; Table H1) was “≧16” and the Results ([3]; Table H1) was “Resistant”. For the same molecule, the Diameter ([4]; PaR5) was 34 mm, the Results ([4]; PaR5) was “Susceptible” and the diameter in mm ([4]; disk diffusion inhibition diameter, strain PaR5) was 34 mm. For the same molecule, the “CA-SFM Interpretation” value ([4]; disk diffusion, PaR5, versus critical diameter CA-SFM 2011) was “Susceptible”, the “CLSI Interpretation” value ([4]; disk diffusion, PaR5, versus critical diameter CLSI 2011) was “Susceptible” and the “EUCAST Interpretation” value ([4]; disk diffusion, PaR5, versus critical diameter EUCAST 2011, for ** antibiotics the disk load differs and the EUCAST interpretation is not applicable) was “Susceptible”.
With `CCn1cc(C(=O)O)c(=O)c2ccc(C)nc21` [Nalidixic acid] the “CA-SFM Interpretation” value [5] was “Susceptible”, the “CLSI Interpretation” value [5] was “Susceptible” and the Results [5] was “Susceptible”. The MIC ([5]; read-out: MIC mg/L) was no more than 2 mg/L, the MIC ([5]; read-out: MIC mg/L (diameter in mm)) was no more than 2 mg/L and the Results [6] was “Resistant”. The “CA-SFM Interpretation” value ([6]; EcR2, from MIC) was “Resistant”, the “CLSI Interpretation” value ([6]; EcR2, from MIC, Cc CLSI 2011) was “Resistant” and the MIC [6] was no less than 32 mg/L. The MIC ([6]; read-out: MIC mg/L) was no less than 32 mg/L.
For `O=C1CN(/N=C/c2ccc([N+](=O)[O-])o2)C(=O)N1` [Nitrofurantoin], the MIC [5, 9] was no more than 16 mg/L, the MIC [5, 10] was no more than 16 mg/L and the “MIC mg/L” value ([7]; Table D2) was “≦16 mg/L”. The MIC ([7]; Table D1) was no more than 16 µg/mL, the MIC ([8]; Table F1) was no more than 25 µg/mL and the MIC ([8]; Table F2, MIC) was no more than 25 µg/mL. For the same molecule, the MIC [6, 11] was no more than 25 mg/L and the MIC [6, 12] was no more than 25 mg/L.
With `CCn1cc(C(=O)O)c(=O)c2cc(F)c(N3CCNCC3)cc21` [Norfloxacin] the “CA-SFM Interpretation” value [5] was “Susceptible”, the “CLSI Interpretation” value [5] was “Susceptible” and the “EUCAST Interpretation” value ([5]; EcR1, MIC against Cc EUCAST 2011) was “Susceptible”. For the same molecule, the Results [5] was “Susceptible”, the MIC [5, 9] was no more than 0.5 mg/L and the MIC [5, 10] was no more than 0.5 mg/L.
`CCn1cc(C(=O)O)c(=O)c2cc(F)c(N3CCNCC3)cc21` [Norofloxacin] was tested, and the Diameter ([4]; PaR5) was 17 mm and the Results ([4]; PaR5) was “Resistant”.
For `Cc1onc(-c2ccccc2)c1C(=O)N[C@@H]1C(=O)N2[C@@H]1SC(C)(C)[C@@H]2C(=O)O` [Oxacillin], the “CA-SFM Interpretation” value [7] was “Resistant”, the “CLSI Interpretation” value [7] was “Resistant” and the “EUCAST Interpretation” value [7] was “Resistant”. The Results ([7]; Table D1) was “Resistant”, the “MIC mg/L” value ([7]; Table D2) was “≧8 mg/L” and the MIC ([7]; Table D1) was no less than 8 µg/mL. The Results ([8]; Table F1, MIC) was “Resistant”, the “CA-SFM Interpretation” value ([8]; from MIC, Cc CA-SFM 2011) was “Resistant” and the “CLSI Interpretation” value ([8]; from MIC, Cc CLSI 2011) was “Resistant”. For the same molecule, the “EUCAST Interpretation” value ([8]; from MIC, Cc EUCAST 2011) was “Resistant”, the MIC ([8]; Table F1) was no less than 8 µg/mL and the MIC ([8]; Table F2, MIC) was no less than 8 µg/mL.
`CCn1cc(C(=O)O)c(=O)c2cc(F)c(N3CCN(C)CC3)cc21` [Pefloxacin] was tested, and the Diameter [1] was 26 mm, the Results [6] was “Resistant” and the “CA-SFM Interpretation” value ([6]; EcR2, from MIC) was “Resistant”. For the same molecule, the MIC [6, 11] was no less than 8 mg/L, the MIC [6, 12] was no less than 8 mg/L and the “CA-SFM Interpretation” value [2] was “Susceptible”. For the same molecule, the Diameter ([2]; Table C1) was 23 mm and the diameter in mm ([2]; Table C2) was 23 mm.
In the case of `CN(C)[C@@H]1C(O)=C(C(N)=O)C(=O)[C@@]2(O)C(O)=C3C(=O)c4c(O)cccc4[C@@](C)(O)[C@H]3C[C@@H]12` [Tetracycline], the MIC ([8]; Table F1) is reported as no more than 1 µg/mL and the MIC ([8]; Table F2, MIC) is reported as no more than 1 µg/mL.
Quinupristin-dalfopristin was tested, and the “CA-SFM Interpretation” value [7] was “Susceptible”, the “CLSI Interpretation” value [7] was “Susceptible” and the “EUCAST Interpretation” value [7] was “Susceptible”. For the same molecule, the “MIC mg/L” value ([7]; Table D1) was “≦0.25 mg/L”, the Results ([7]; Table D1) was “Susceptible” and the “MIC mg/L” value ([7]; Table D2) was “≦0.25 mg/L”.
